Reference: ChEMBL document CHEMBL5365500, “Development and Antibacterial Properties of 4-[4-(Anilinomethyl)-3-phenylpyrazol-1-yl]benzoic Acid Derivatives as Fatty Acid Biosynthesis Inhibitors” (J Med Chem, 2023)
≈ marks a conversion by molar mass, not a printed value.

Experiments:
Assay type in all cases: functional
Conditions in all cases: time 20-24 hrs
[1] = test system: Staphylococcus epidermidis; assay: Antimicrobial activity against antibiotic-resistant Staphylococcus epidermidis ATCC 700296 assessed as inhibition of visible growth measured after 20 to 24 hrs incubation by CLSI method
Enterococcus faecium = assay: Antimicrobial activity against antibiotic-resistant Enterococcus faecium ATCC 700221 assessed as inhibition of visible growth measured after 20 to 24 hrs incubation by CLSI method
Staphylococcus aureus [2] = assay: Antimicrobial activity against antibiotic-resistant Staphylococcus aureus ATCC 33591 assessed as inhibition of visible growth measured after 20 to 24 hrs incubation by CLSI method
Staphylococcus aureus [3] = assay: Antimicrobial activity against antibiotic-resistant Staphylococcus aureus ATCC 33592 assessed as inhibition of visible growth measured after 20 to 24 hrs incubation by CLSI method
Enterococcus faecalis [4] = assay: Antimicrobial activity against antibiotic-resistant Enterococcus faecalis ATCC 51299 assessed as inhibition of visible growth measured after 20 to 24 hrs incubation by CLSI method
Bacillus subtilis = assay: Antimicrobial activity against antibiotic-resistant Bacillus subtilis ATCC 6623 assessed as inhibition of visible growth measured after 20 to 24 hrs incubation by CLSI method
Staphylococcus aureus [5] = assay: Antimicrobial activity against Staphylococcus aureus ATCC 25923 assessed as inhibition of visible growth measured after 20 to 24 hrs incubation by CLSI method
Staphylococcus aureus [6] = assay: Antimicrobial activity against antibiotic-resistant Staphylococcus aureus ATCC BAA-2312 assessed as inhibition of visible growth measured after 20 to 24 hrs incubation by CLSI method
Staphylococcus aureus [7] = assay: Antimicrobial activity against antibiotic-resistant Staphylococcus aureus ATCC 700699 assessed as inhibition of visible growth measured after 20 to 24 hrs incubation by CLSI method
Enterococcus faecalis [8] = assay: Antimicrobial activity against antibiotic-susceptible Enterococcus faecalis ATCC 29212 assessed as inhibition of visible growth measured after 20 to 24 hrs incubation by CLSI method

| Structure (SMILES) | MIC [1] | MIC (Enterococcus faecium) | MIC (Staphylococcus aureus [2]) | MIC (Staphylococcus aureus [3]) | MIC (Enterococcus faecalis [4]) | MIC (Bacillus subtilis) | MIC (Staphylococcus aureus [5]) | MIC (Staphylococcus aureus [6]) | MIC (Staphylococcus aureus [7]) | MIC (Enterococcus faecalis [8]) |
| --- | --- | --- | --- | --- | --- | --- | --- | --- | --- | --- |
| O=C(O)c1ccc(-n2cc(CNc3cccc(Br)c3)c(-c3cccc(F)c3)n2)cc1 | 16 µg/mL (≈ 34.3 µM) | 16 µg/mL (≈ 34.3 µM) | 2 µg/mL (≈ 4.29 µM) | 8 µg/mL (≈ 17.2 µM) | 16 µg/mL (≈ 34.3 µM) | 2 µg/mL (≈ 4.29 µM) | 4 µg/mL (≈ 8.58 µM) | 4 µg/mL (≈ 8.58 µM) | 8 µg/mL (≈ 17.2 µM) | 16 µg/mL (≈ 34.3 µM) |
| O=C(O)c1ccc(-n2cc(CNc3ccc(Oc4ccccc4)cc3)c(-c3ccc(F)cc3)n2)cc1 | 4 µg/mL (≈ 8.34 µM) | 4 µg/mL (≈ 8.34 µM) | 1 µg/mL (≈ 2.09 µM) | 4 µg/mL (≈ 8.34 µM) | 4 µg/mL (≈ 8.34 µM) | 2 µg/mL (≈ 4.17 µM) | 2 µg/mL (≈ 4.17 µM) | 2 µg/mL (≈ 4.17 µM) | 2 µg/mL (≈ 4.17 µM) | 8 µg/mL (≈ 16.7 µM) |
| O=C(O)c1ccc(-n2cc(CNc3ccccc3)c(-c3ccc(F)c(F)c3)n2)cc1 | 16 µg/mL (≈ 39.5 µM) | 32 µg/mL (≈ 78.9 µM) | 16 µg/mL (≈ 39.5 µM) | 32 µg/mL (≈ 78.9 µM) | > 32 µg/mL | 8 µg/mL (≈ 19.7 µM) | 16 µg/mL (≈ 39.5 µM) | 32 µg/mL (≈ 78.9 µM) | 32 µg/mL (≈ 78.9 µM) | > 32 µg/mL |
| O=C(O)c1ccc(-n2cc(CNc3cc(F)cc(C(F)(F)F)c3)c(-c3ccc(F)c(F)c3)n2)cc1 | 4 µg/mL (≈ 8.14 µM) | 4 µg/mL (≈ 8.14 µM) | 1 µg/mL (≈ 2.04 µM) | 1 µg/mL (≈ 2.04 µM) | 8 µg/mL (≈ 16.3 µM) | 1 µg/mL (≈ 2.04 µM) | 2 µg/mL (≈ 4.07 µM) | 2 µg/mL (≈ 4.07 µM) | 2 µg/mL (≈ 4.07 µM) | 8 µg/mL (≈ 16.3 µM) |
| O=C(O)c1ccc(-n2cc(CNc3cc(F)cc(C(F)(F)F)c3)c(-c3cccc(F)c3)n2)cc1 | 4 µg/mL (≈ 8.45 µM) | 4 µg/mL (≈ 8.45 µM) | 1 µg/mL (≈ 2.11 µM) | 1 µg/mL (≈ 2.11 µM) | 8 µg/mL (≈ 16.9 µM) | 1 µg/mL (≈ 2.11 µM) | 2 µg/mL (≈ 4.22 µM) | 2 µg/mL (≈ 4.22 µM) | 2 µg/mL (≈ 4.22 µM) | 8 µg/mL (≈ 16.9 µM) |
| O=C(O)c1ccc(-n2cc(CNc3ccc(F)c(Cl)c3F)c(-c3ccc(F)c(F)c3)n2)cc1 | 8 µg/mL (≈ 16.8 µM) | 4 µg/mL (≈ 8.41 µM) | 2 µg/mL (≈ 4.2 µM) | 4 µg/mL (≈ 8.41 µM) | > 32 µg/mL | 1 µg/mL (≈ 2.1 µM) | 4 µg/mL (≈ 8.41 µM) | 4 µg/mL (≈ 8.41 µM) | 4 µg/mL (≈ 8.41 µM) | 16 µg/mL (≈ 33.6 µM) |
| O=C(O)c1ccc(-n2cc(CNc3cc(Cl)c(F)c(Cl)c3)c(-c3ccc(F)cc3)n2)cc1 | 2 µg/mL (≈ 4.22 µM) | 4 µg/mL (≈ 8.43 µM) | 0.5 µg/mL (≈ 1.05 µM) | 1 µg/mL (≈ 2.11 µM) | 4 µg/mL (≈ 8.43 µM) | 1 µg/mL (≈ 2.11 µM) | 1 µg/mL (≈ 2.11 µM) | 1 µg/mL (≈ 2.11 µM) | 2 µg/mL (≈ 4.22 µM) | 8 µg/mL (≈ 16.9 µM) |
| CC(C)c1ccc(NCc2cn(-c3ccc(C(=O)O)cc3)nc2-c2ccc(F)cc2)cc1 | 8 µg/mL (≈ 18.6 µM) | 4 µg/mL (≈ 9.31 µM) | 4 µg/mL (≈ 9.31 µM) | 8 µg/mL (≈ 18.6 µM) | 8 µg/mL (≈ 18.6 µM) | 2 µg/mL (≈ 4.66 µM) | 8 µg/mL (≈ 18.6 µM) | 4 µg/mL (≈ 9.31 µM) | 4 µg/mL (≈ 9.31 µM) | 16 µg/mL (≈ 37.3 µM) |
| O=C(O)c1ccc(-n2cc(CNc3ccc(Cl)cc3)c(-c3ccc(F)cc3)n2)cc1 | > 32 µg/mL | > 32 µg/mL | 4 µg/mL (≈ 9.48 µM) | > 32 µg/mL | > 32 µg/mL | 4 µg/mL (≈ 9.48 µM) | > 32 µg/mL | 32 µg/mL (≈ 75.9 µM) | 8 µg/mL (≈ 19 µM) | > 32 µg/mL |
| O=C(O)c1ccc(-n2cc(CNc3ccc(F)c(F)c3)c(-c3cccc(F)c3)n2)cc1 | 32 µg/mL (≈ 75.6 µM) | 32 µg/mL (≈ 75.6 µM) | 16 µg/mL (≈ 37.8 µM) | 16 µg/mL (≈ 37.8 µM) | 32 µg/mL (≈ 75.6 µM) | 8 µg/mL (≈ 18.9 µM) | 16 µg/mL (≈ 37.8 µM) | 16 µg/mL (≈ 37.8 µM) | 16 µg/mL (≈ 37.8 µM) | > 32 µg/mL |
| Cc1cc(NCc2cn(-c3ccc(C(=O)O)cc3)nc2-c2ccc(F)cc2)ccc1Br | 4 µg/mL (≈ 8.33 µM) | 8 µg/mL (≈ 16.7 µM) | 2 µg/mL (≈ 4.16 µM) | 4 µg/mL (≈ 8.33 µM) | 8 µg/mL (≈ 16.7 µM) | 1 µg/mL (≈ 2.08 µM) | 4 µg/mL (≈ 8.33 µM) | 2 µg/mL (≈ 4.16 µM) | 2 µg/mL (≈ 4.16 µM) | 16 µg/mL (≈ 33.3 µM) |
| O=C(O)c1ccc(-n2cc(CNc3ccc(F)cc3)c(-c3ccc(F)cc3)n2)cc1 | 32 µg/mL (≈ 78.9 µM) | > 32 µg/mL | 16 µg/mL (≈ 39.5 µM) | 16 µg/mL (≈ 39.5 µM) | > 32 µg/mL | 16 µg/mL (≈ 39.5 µM) | 16 µg/mL (≈ 39.5 µM) | 32 µg/mL (≈ 78.9 µM) | 16 µg/mL (≈ 39.5 µM) | > 32 µg/mL |
| O=C(O)c1ccc(-n2cc(CNc3cc(Cl)cc(C(F)(F)F)c3)c(-c3ccc(F)cc3)n2)cc1 | 8 µg/mL (≈ 16.3 µM) | 4 µg/mL (≈ 8.17 µM) | 2 µg/mL (≈ 4.08 µM) | 4 µg/mL (≈ 8.17 µM) | 16 µg/mL (≈ 32.7 µM) | 4 µg/mL (≈ 8.17 µM) | 4 µg/mL (≈ 8.17 µM) | 4 µg/mL (≈ 8.17 µM) | 2 µg/mL (≈ 4.08 µM) | 16 µg/mL (≈ 32.7 µM) |
| O=C(O)c1ccc(-n2cc(CNc3cc(Br)cc(C(F)(F)F)c3)c(-c3ccc(F)cc3)n2)cc1 | 4 µg/mL (≈ 7.49 µM) | 2 µg/mL (≈ 3.74 µM) | 0.5 µg/mL (≈ 0.936 µM) | 1 µg/mL (≈ 1.87 µM) | 2 µg/mL (≈ 3.74 µM) | 1 µg/mL (≈ 1.87 µM) | 2 µg/mL (≈ 3.74 µM) | 1 µg/mL (≈ 1.87 µM) | 1 µg/mL (≈ 1.87 µM) | 4 µg/mL (≈ 7.49 µM) |
